Laboratory results published in patent publication US5308867A, “Platelet activating factor antagonists, named "the phomactins", their preparation and use” (Sankyo Company, Limited, priority 1988, dated 1994).
pIC50: −log10 of the molar value.

Legend:
Solubility = type: physicochemical; settings: for Solubility in organic solvents: methanol, ethanol, acetone, ethyl acetate, chloroform, dimethyl sulfoxide, benzene and diethyl ether
platelet aggregation = experiment: Antiplatelet aggregation test in rabbit platelet-rich plasma, synthetic C16:0 PAF-induced (method of Born et al.); type: cell-based; settings: platelet count 6×10^5 /μl, C16:0 PAF final 1×10^-8 -3×10^-8 M; for pIC50: Oryctolagus cuniculus, read-out: IC50 (concentration necessary to inhibit aggregation by 50%)
Protocol: The following antiplatelet aggregation test was performed, using the phomactin A thus obtained.
Blood was drawn from a rabbit heart and immediately mixed with nine times its volume of a 3.8% w/v aqueous solution of sodium citrate. A platelet-rich plasma (PRP) was then obtained as a supernatant by centrifugation of the blood mixture at 150×g for 15 minutes at room temperature. The precipitated fraction remaining from the blood mixture was then centrifuged for a further 15 minutes at 10,000×g to obtain a platelet-poor plasma (PPP) as a supernatant. Appropriate proportions of the PRP and the PPP were mixed to obtain a plasma having a platelet count of 6×10^5 /μl.
Platelet aggregation was determined by the method of Born et al. [Nature, 194, 927-929 (1962)] where an increase in light transmission through the test sample is measured by means of an aggregometer.
The aggregation resulting from the addition of the PAF alone, without the prior addition of the test compound, was taken as 100%.
Instead of the test solution, physiological saline was added and the aggregation at one minutes after the addition of C16 -PAF was used as the control.

[1] = system: arrhythmias evoked by ligation of left anterior descending coronary artery; settings: cited from earlier work
[2] = system: infarct size after coronary artery ligation; settings: 5 mg kg^-1 i.v. immediately before occlusion, after 24 h of occlusion, rats, cited from earlier work

| Solubility in water (Solubility) | pIC50 (platelet aggregation) | SMILES | Solubility in organic solvents (Solubility) | inhibition of platelet aggregation (platelet aggregation; at a concentration of 10 g/ml (so in the source)) | number of ectopic beats during the 30 min ischemic period (in words) ([1]; 5 mg kg^-1, 15 min before coronary artery occlusion, mongrel dogs) | Number of ectopic beats, 5-10 min of ischemia, mean ± SEM ([1]; 5 mg kg^-1 i.v. bolus 15 min before ligation, 5-10 min, dogs, p < 0.05 (Wilcoxon)) | Number of ectopic beats, 10-15 min of ischemia, mean ± SEM ([1]; 5 mg kg^-1 i.v. bolus 15 min before ligation, 10-15 min, dogs, p < 0.05 (Wilcoxon)) | Number of ectopic beats, 15-20 min of ischemia, mean ± SEM ([1]; 5 mg kg^-1 i.v. bolus 15 min before ligation, 15-20 min, dogs, p < 0.05 (Wilcoxon)) | Number of ectopic beats, 20-25 min of ischemia, mean ± SEM ([1]; 5 mg kg^-1 i.v. bolus 15 min before ligation, 20-25 min, dogs, p < 0.05 (Wilcoxon)) | Number of ectopic beats, 25-30 min of ischemia, mean ± SEM ([1]; 5 mg kg^-1 i.v. bolus 15 min before ligation, 25-30 min, dogs, p < 0.05 (Wilcoxon)) | infarct size ([2]; control 26±2.2%, p<0.05) | infarct size (in words) ([2]; preliminary studies) |
| --- | --- | --- | --- | --- | --- | --- | --- | --- | --- | --- | --- | --- |
| insoluble in water | 4.77 | CC1=CCCC2(C)OC3CC(C)C(C)(CC1)C1=C3C(O)(OC1)C2O (stereo not drawn) [Phomactin A, 3,3a-dihydroxy-2,6-(3'-methyl-3'-hexeno)-2,6,7-trimethyl-3a,5,6,7,8,8a-hexanhydrofuro[2,3,4-de]chroman] | Soluble in methanol, ethanol, acetone, ethyl acetate, chloroform, dimethyl sulfoxide, benzene and diethyl ether | about 91.7% |  |  |  |  |  |  |  |  |
|  |  | CC1C(=O)OC2C(O)C34C5CC(C(C)(C)C)C36C(OC(=O)C6O)OC4(C(=O)O5)C12O (stereo not drawn) [BN-52021] |  |  | significantly reduced the number of ectopic beats | 10 ± 5.4 | 10 ± 5.3 | 15 ± 6.3 | 55 ± 28.6 | 98 ± 39.0 | 17±1.8 % of heart tissue | significantly reduced the infarct size |
| insoluble in water | 4.77 | CC1=CCCC2(C)OC2C(=O)C2=CC(O)C(C)C(C)(CC1)C2(C)O (stereo not drawn) [Phomactin B, 13,15-dihydroxy-3,4-epoxy-2-oxo-4,8,11,12,15-pentamethylbicycl[9.3.1]pentadeca-7,14-diene] | Soluble in methanol, ethanol, acetone, ethyl acetate, chloroform, dimethyl sulfoxide, benzene and diethyl ether |  |  |  |  |  |  |  |  |  |
